Patent US10875874B2, “Ginkgolide B derivative and preparation method and use thereof” (Chengdu Baiyu Ginkgolide Pharmaceuticals Co., Ltd., priority 2015, dated 2020)
Converted amounts (≈) assume the structure as drawn. Marks after values point to notes of the source that are not given here.

Key:
[1] = test system: spontaneously hypertensive rats (SHR); assay: Caudal artery systolic pressure of spontaneously hypertensive rats, 8 weeks of continuous medication; format: in vivo, rat; conditions: x ± s, n = 8
In short: (§1)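 SHR rats of both sexes (200–250 g, 8/group) dosed intragastrically with 60 or 120 mg/kg/d, or captopril 27 mg/kg, once daily for 8 weeks; Wistar rats and vehicle SHR served as controls. Tail-cuff systolic pressure taken as the mean of 3 readings, measured before dosing and 30–120 min after the first dose, or 30 min post-dose on days 1–56 for chronic treatment.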

[2] = test system: spontaneously hypertensive rats (SHR); assay: Caudal artery systolic pressure of spontaneously hypertensive rats, single administration; format: in vivo, rat; conditions: x ± s, n = 8
In short: as §1

[3] = Weekly food intake of SHR rats; format: in vivo, rat
In short: (§2)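 Male and female SHR rats (200-250 g, 8/group) dosed intragastrically once daily for 8 weeks with test compounds at 60 or 120 mg/kg/d or captopril 27 mg/kg; Wistar and SHR controls received distilled water. Body weight and food intake observed during treatment.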

Water solubility test = conditions: purified water, thermodynamic from solid
Method: Measuring method: samples are ground to obtain fine powder, target compounds are quantitatively weighed, the weighed compounds are added into purified water, and the solubility of the compounds is investigated by ultrasonics.

[4] = Weekly body weight of SHR rats; format: in vivo, rat
In short: as §2

[5] = 60 mg/kg/d intragastric, week 0
[6] = 60 mg/kg/d intragastric, week 1
[7] = 60 mg/kg/d intragastric, week 2
[8] = 60 mg/kg/d intragastric, week 3
[9] = 60 mg/kg/d intragastric, week 4
[10] = 60 mg/kg/d intragastric, week 5
[11] = 60 mg/kg/d intragastric, week 6
[12] = 60 mg/kg/d intragastric, week 7
[13] = 60 mg/kg/d intragastric, week 8
[14] = 120 mg/kg/d intragastric, week 0
[15] = 120 mg/kg/d intragastric, week 1
[16] = 120 mg/kg/d intragastric, week 2
[17] = 120 mg/kg/d intragastric, week 3
[18] = 120 mg/kg/d intragastric, week 4
[19] = 120 mg/kg/d intragastric, week 5
[20] = 120 mg/kg/d intragastric, week 6
[21] = 120 mg/kg/d intragastric, week 7
[22] = 120 mg/kg/d intragastric, week 8

SMILES: Cc1nc(C)c(C(=O)O[C@H]2C(=O)O[C@H]3O[C@]45C(=O)OC6C[C@@H](C(C)(C)C)C32[C@@]64[C@@H](O)[C@@H]2OC(=O)[C@@H](C)[C@@]25O)nc1C (some centres unmarked) [BZ]
- Systolic pressure ([1]; 60 mg/kg/d intragastric continuous, 1 d, 30 min after administration): 158.77 ± 11.06 mmHg
- Systolic pressure ([1]; 60 mg/kg/d intragastric continuous, 7 d, 30 min after administration): 153.41 ± 14.08 mmHg
- Systolic pressure ([1]; 60 mg/kg/d intragastric continuous, 13 d, 30 min after administration): 151.38 ± 9.47 mmHg
- Systolic pressure ([1]; 60 mg/kg/d intragastric continuous, 19 d, 30 min after administration): 155.74 ± 10.62 mmHg
- Systolic pressure ([1]; 60 mg/kg/d intragastric continuous, 25 d, 30 min after administration): 154.94 ± 9.64 mmHg
- Systolic pressure ([1]; 60 mg/kg/d intragastric continuous, 35 d, 30 min after administration): 150.95 ± 5.04 mmHg
- Systolic pressure ([1]; 60 mg/kg/d intragastric continuous, 49 d, 30 min after administration): 155.06 ± 6.37 mmHg
- Systolic pressure ([1]; 60 mg/kg/d intragastric continuous, 56 d, 30 min after administration): 153.95 ± 14.01 mmHg
- Systolic pressure ([1]; 60 mg/kg/d intragastric continuous, before administration): 163.58 ± 10.36 mmHg
- Systolic pressure ([1]; 120 mg/kg/d intragastric continuous, 1 d, 30 min after administration): 154.69 ± 9.85 mmHg
- Systolic pressure ([1]; 120 mg/kg/d intragastric continuous, 7 d, 30 min after administration): 153.74 ± 10.24 mmHg
- Systolic pressure ([1]; 120 mg/kg/d intragastric continuous, 13 d, 30 min after administration): 150.39 ± 10.39 mmHg
- Systolic pressure ([1]; 120 mg/kg/d intragastric continuous, 19 d, 30 min after administration): 149.72 ± 9.83 mmHg
- Systolic pressure ([1]; 120 mg/kg/d intragastric continuous, 25 d, 30 min after administration): 149.02 ± 8.26 mmHg
- Systolic pressure ([1]; 120 mg/kg/d intragastric continuous, 35 d, 30 min after administration): 151.72 ± 10.47 mmHg
- Systolic pressure ([1]; 120 mg/kg/d intragastric continuous, 49 d, 30 min after administration): 153.42 ± 12.04 mmHg
- Systolic pressure ([1]; 120 mg/kg/d intragastric continuous, 56 d, 30 min after administration): 148.62 ± 9.73 mmHg
- Systolic pressure ([1]; 120 mg/kg/d intragastric continuous, before administration): 166.24 ± 12.14 mmHg
- Systolic pressure ([2]; 60 mg/kg intragastric single administration, 30 min): 152.65 ± 10.48 mmHg
- Systolic pressure ([2]; 60 mg/kg intragastric single administration, 60 min): 153.05 ± 16.39 mmHg
- Systolic pressure ([2]; 60 mg/kg intragastric single administration, 90 min): 151.14 ± 10.87 mmHg
- Systolic pressure ([2]; 60 mg/kg intragastric single administration, 120 min): 156.47 ± 12.47 mmHg
- Systolic pressure ([2]; 60 mg/kg intragastric single administration, before administration): 163.58 ± 10.36 mmHg
- Systolic pressure ([2]; 120 mg/kg intragastric single administration, 30 min): 150.00 ± 9.15 mmHg
- Systolic pressure ([2]; 120 mg/kg intragastric single administration, 60 min): 152.95 ± 9.26 mmHg
- Systolic pressure ([2]; 120 mg/kg intragastric single administration, 90 min): 156.28 ± 13.95 mmHg
- Systolic pressure ([2]; 120 mg/kg intragastric single administration, 120 min): 169.36 ± 10.63 mmHg
- Systolic pressure ([2]; 120 mg/kg intragastric single administration, before administration): 166.24 ± 12.14 mmHg
- Average dairy food intake [3, 5]: 18.1 g/day
- Average dairy food intake [3, 6]: 19.5^▴ g/d
- Average dairy food intake [3, 7]: 19.7^▴ g/d
- Average dairy food intake [3, 8]: 20.4^▴▴ g/d
- Average dairy food intake [3, 9]: 20.9^▴▴ g/d
- Average dairy food intake [3, 10]: 21.7^▴▴ g/d
- Average dairy food intake [3, 11]: 22.9^▴▴ g/d
- Average dairy food intake [3, 12]: 24.0^▴▴ g/d
- Average dairy food intake [3, 13]: 24.9^▴▴ g/d
- Average dairy food intake [3, 14]: 18.0 g/day
- Average dairy food intake [3, 15]: 19.3^▴ g/d
- Average dairy food intake [3, 16]: 20.5^▴▴ g/d
- Average dairy food intake [3, 17]: 22.0^▴▴ g/d
- Average dairy food intake [3, 18]: 22.6^▴▴ g/d
- Average dairy food intake [3, 19]: 23.6^▴▴ g/d
- Average dairy food intake [3, 20]: 24.1^▴▴ g/d
- Average dairy food intake [3, 21]: 24.9^▴▴ g/d
- Average dairy food intake [3, 22]: 27.0^▴▴ g/d
- solubility (Water solubility test): 0.3 mg/mL (≈ 524 µM)
- Body weight [4, 5]: 231.0 g
- Body weight [4, 6]: 235.7 g
- Body weight [4, 7]: 242.5 g
- Body weight [4, 8]: 251.6 g
- Body weight [4, 9]: 259.4^▴ g
- Body weight [4, 10]: 263.6^▴ g
- Body weight [4, 11]: 269.1^▴▴ g
- Body weight [4, 12]: 276.8^▴▴ g
- Body weight [4, 13]: 288.0^▴▴ g
- Body weight [4, 14]: 268.9 g
- Body weight [4, 15]: 249.4^▴▴ g
- Body weight [4, 16]: 256.7^▴▴ g
- Body weight [4, 17]: 262.4^▴▴ g
- Body weight [4, 18]: 268.9^▴▴ g
- Body weight [4, 19]: 280.7^▴▴ g
- Body weight [4, 20]: 291.3^▴▴ g
- Body weight [4, 21]: 305.4^▴▴ g
- Body weight [4, 22]: 320.9^▴▴ g
